According to US5589364A, “Recombinant production of biologically active peptides and proteins” (priority 1994, dated 1996):
Ends that are not written are not given here.

Assays:
[1] = test system: Staphylococcus aureus ATCC 29213; assay: Microdilution broth antibacterial susceptibility assay (NCCLS M7-A2), MIC; type: cell-based; conditions: lowest concentration completely inhibiting growth; MHB, 16-20 hours, 35-37 C; tested in duplicate
Procedure: (§1) Antibacterial susceptibility testing was performed using a microdilution broth assay according to the guidelines of the National Committee for Clinical Laboratory Standards (NCCLS) Document M7-A2 (NCCLS, 1990). For preparation of peptide stock solutions, the peptide powder as an acetate salt was weighed on an analytical balance and transferred to a polypropylene tube. Stock solutions were prepared at a concentration of 1.024 mg/mL (or, in the case of natural polyphemusin, 1.00 mg/mL) by dissolving the powder in autoclaved (121° C., 20 psi, 20 minutes) deionized water. The peptide solution was used immediately, stored for up to ten days at 4° C., or stored longterm at -70° C. in 1 mL aliquotes in polypropylene cryovials. Mueller-Hinton broth (MHB)(BBL® catalog number 11443) was used in microtiter plates for diluting peptide stock solutions and for diluting each bacterial inoculum. MHB 5 mL prepared tubes (BBL® catalog number 95834) were used to culture an overnight plate of bacteria to the logarithmic phase of growth for inoculating the microtiter plates.
(§2) The bacteria used in the antimicrobial susceptibility testing are the quality control reference strains Staphylococcus aureus ATCC 29213, Escherichia coli ATCC 25922, and Pseudomonas aeruginosa ATCC 27853. Inoculum for each reference strain was prepared by taking a sample of bacteria from a 16-20 hour plate culture and inoculating into 5 mL of MHB (BBL® catalog number 95834) to an absorbance reading of approximately 0.02 at 600 nm (A600) on a Beckman DU®-64 spectrophotometer. The culture was incubated at 35°-37° C. with shaking in a New Brunswick incubator shaker (Model G25) and the growth monitored spectrophotometrically until it reached A600 of approximately 0.6; this absorbance represented approximately 1×10^8 colony-forming units per milliliter (CFUs/mL).
(§3) The culture was then diluted to approximately 1×10^6 CFUs/mL in autoclaved MHB (BBL® catalog number 11443) to produce the parent inoculum. A sample of the parent inoculating culture was diluted in 3 mM phosphate buffer (pH 7.2) through a series of 1:10 dilutions and the 10^-4 and 10^-5 dilutions were plated, incubated overnight at 35°-37° C., and counted the next day to verify inoculum density. Microtiter plates (Corning manufacturer number 2585096) were prepared with the use of a Beckman Biomek® 1000 automated laboratory workstation in combination with manual techniques. The microtiter plate was filled with diluent broth using the Biomek® 1000 instrument. Peptide stock solution was manually added to the top drug well of the microtiter plate using a Rainin Pipetman®, Model P-200. The peptide was serially diluted in twofold dilutions using the Biomek® 1000 instrument. One hundred microliters of the standardized bacterial inoculum was added to every well of the microtiter plates (except the blanks) using an Eppendorf Repeater® Model 4780 pipet equipped with an Eppendorf 5 mL combitip (catalog number 22 26 130-4). All peptides were tested in duplicate. In addition to the test peptide, three standard peptides (Magainin 2, MSI-63, and MSI-98) and a non-treated growth control were included to validate the assay. The final concentrations of peptide solution in the microtiter wells ranged from 0.25 ug/mL to 256 ug/mL. The final concentration of bacteria in the microtiter wells was 1-5×10^5 CFUs/mL. The final solution volume in each well was 200 uL. The microtiter plates were incubated overnight (16-20 hours) at 35°-37° C. after preparation in a Precision mechanical convection oven incubator Model 30M.
(§4) This value was determined using the unaided eye. In addition, for a permanent record, the absorbance at 630 nm was read on a Dynatech MR5000 Microplate Reader, Version 2.7, and a printed record was generated on an Epson LX800 dot-matrix printer.

[2] = test system: Pseudomonas aeruginosa ATCC 27853; assay: as above; type: cell-based; conditions: lowest concentration completely inhibiting growth; MHB, 16-20 hours, 35-37 C; tested in duplicate
Procedure: as §1, §2, §3, §4

[3] = test system: Escherichia coli ATCC 25922; assay: as above; type: cell-based; conditions: lowest concentration completely inhibiting growth; MHB, 16-20 hours, 35-37 C; tested in duplicate
Procedure: as §1, §2, §3, §4

[4] = test system: reference strains Staphylococcus aureus ATCC 29213, Escherichia coli ATCC 25922, and Pseudomonas aeruginosa ATCC 27853; assay: Antimicrobial susceptibility assay as in Example 1, organism not specified per result; type: cell-based
Procedure: Antibacterial susceptibility testing was performed using a microdilution broth assay according to the guidelines of the National Committee for Clinical Laboratory Standards (NCCLS) Document M7-A2 (NCCLS, 1990). For preparation of peptide stock solutions, the peptide powder as an acetate salt was weighed on an analytical balance and transferred to a polypropylene tube. Stock solutions were prepared at a concentration of 1.024 mg/mL (or, in the case of natural polyphemusin, 1.00 mg/mL) by dissolving the powder in autoclaved (121° C., 20 psi, 20 minutes) deionized water. […]
as §2, with “(CFUs/mL). […]” for “(CFUs/mL).”
This value was determined using the unaided eye. […]

[5] = test system: E. coli ATCC strain 25922; assay: Bacterial growth inhibition assay, aliquots spotted onto a bacterial lawn; type: cell-based, Escherichia coli; conditions: purified recombinant peptide at 0.4 ug/mL; half-strength trypticase soy broth agar with 50 mM sodium fluoride
Procedure: Small aliquots of recombinant MSI-556 and other HPLC fractions from the CNBr digest of MBP-MSI-556 fusion protein were spotted onto a lawn of E. coli ATCC strain 25922 grown on a half-strength trypticase soy broth agar plate containing 50 mM sodium fluoride.

| Substance | Minimum Inhibitory Concentration, Test Organism: Staph. aureus [1] | Minimum Inhibitory Concentration, Test Organism: Pseudo. aeruginosa [2] | Minimum Inhibitory Concentration, Test Organism: E. coli [3] | Spectrum of antibacterial activity (summary of Table I) ([4]; unamidated peptides, conclusion from MIC values) | Bacterial lawn growth inhibition as judged visually [5] | Bioactivity in antimicrobial susceptibility assay ([4]; HPLC-purified recombinant peptide, without reformation of the two disulfide bridges) |
| --- | --- | --- | --- | --- | --- | --- |
| NH2 --GIGKFLKKAKKFGKAGVKILKKG--OH [MSI-556] | 16 µg/mL | 4 µg/mL | 4 to 16 µg/mL | broadly active against both gram-negative and gram-positive human pathogenic bacteria | significant antimicrobial activity |  |
| NH2 --RRWCFRVCYRGFCYRKCRG--OH (H-RRWCFRVCYRGFCYRKCRG-OH; cysteine pairing not given here) [Lim1] |  |  |  |  |  | bioactive |
| GIGKFLHSAKKFGKAFVGEIMNS [Native Magainin 2, reference compound] | 256 µg/mL | 256 µg/mL | 64 to 128 µg/mL |  |  |  |
| GIGKFLKKAKKFGKAFVKILKK-NH2 [MSI-78] | 8 to 16 µg/mL | 4 to 8 µg/mL | 8 µg/mL |  |  |  |
